Experimental data reported in patent US12090164B2, “Genotype-agnostic rescue of cystic fibrosis with small molecule bicarbonate channels” (The Board of Trustees of the University of Illinois, priority 2017, dated 2024).
Entries after “also recorded” stand apart in the source; their conditions may differ.

Legend:
CuFi-1 epithelia = experiment: ASL height by confocal microscopy; type: cell-based, human
Experimental: (§1) ASL height was studied using an established fluorescent dye assay (60, 61). Small diameter NuLi and CuFi-1 cultured epithelia were used for this experiment (0.33 cm^2). 24 hours prior to the start of experiment, the apical side of all cultured epithelia was rinsed three times with warm PBS to remove excess mucus. NuLi epithelia were treated with perfluorocarbon (FC-72) vehicle or 500 µM basolateral bumetanide in DMSO vehicle applied to the media, and CuFi epithelia were treated with 20 μL vehicle, 0.005, 0.5, or 50 μM AmB, or 0.5 μM C35deOAmB suspended in perfluorocarbon (FC-72, Sigma), with or without 500 μM basolateral bumetanide in DMSO vehicle applied to the media and incubated for 24 hours at 37° C. After 24 hours, 2.5 μL of a 2 mg/mL 70 kDa Texas Red-dextran conjugate (Molecular Probes) solution in PBS was added to the apical side of the epithelia, followed by 100 μL of FC-770 to prevent evaporation. Then the culture support was placed on top of 100 μL of PBS on a 10 mm glass bottom Fluorodish for imaging (World Precision Instruments). Epithelia were imaged immediately after dye addition and again at 24 hours to examine dye absorption. Three Z-stack images per membrane were taken on an Zeiss LSM700 confocal microscope at 40× oil immersion. These images were analyzed using ImageJ (62) to determine the average ASL height in the center 1300 pixels of each image. Images were smoothed, converted to 8-bit, and thresholded to most accurately represent the red area. The parameters for Analyze Particles were particles from 1-Infinity μm^2 in size and from 0%-100% circularity. Height was determined by dividing the area output in pixels by the known 1300 pixel width and converted to microns using the known scaling factor of 0.49 µm/pixel.

NuLi epithelia = experiment: ASL height by confocal microscopy; type: cell-based, human; conditions: bumetanide 500 μM
Experimental: as §1

[1] = aerosolized NaHCO3; cited from earlier work
[2] = system: CuFi-1 (ΔF508/ΔF508) airway epithelia; experiment: Ussing chamber permeabilization of differentiated CF airway epithelia; type: cell-based, human; conditions: differentiated CuFi-1 epithelia
Experimental: A series of natural products and synthetic compounds reported previously to permeabilize liposomes, cells, and/or nasal epithelia of mice to anions (11-14) were tested using an Ussing chamber and differentiated cultures of airway epithelia derived from an immortalized airway epithelial cell line from a CF patient having the most common ΔF508/ΔF508 genotype (CuFi-1) (15). […] The capacity for AmB and C35deOAmB to transport bicarbonate across cholesterol-containing POPC liposomes was tested using an adapted ^13C NMR-based assay (18).

[3] = system: CuFi-1 (ΔF508/ΔF508) epithelia; experiment: ASL pH in cultured CF airway epithelia (SNARF-dextran); type: cell-based, human; conditions: for ASL pH, apical addition: AmB or C35deOAmB 2 μM, ivacaftor/forskolin 10 μM, 2 h, vs vehicle
Experimental: (§2) Small diameter NuLi, CuFi, and primary cultured epithelia were used for this experiment (0.33 cm^2). The ratiometric pH indicator SNARF-conjugated dextran (Molecular Probes) was used to measure ASL pH. SNARF powder was suspended via sonication in perfluorocarbon (FC-72, Sigma) and distributed onto the apical surface. ASL pH was measured 2 hr later (3, 4, 25). SNARF was excited at 488 nm and emission was recorded at 580 nm and 640 nm using a Zeiss LSM 800 microscope at 40× water immersion for cell line cultures and a Zeiss LSM 510 microscope for primary cultures. To generate a standard curve for pH determination, SNARF was dissolved in colorless pH standards and fluorescence ratios were converted to pH.
(§3) Agents tested in this assay were first lyophilized into powder and then suspended in the appropriate volume of perfluorocarbon (FC-72, Sigma) and sonicated for 1 minute to suspend. AmBisome should not be sonicated; instead, the fine powder was suspended by vortexing.
(§4) In all experiments, ASL pH of compound-treated epithelia was measured compared the results to vehicle-treated epithelia.
(§5) For apical AmB administration, cultured airway epithelia were incubated for 30 min-48 hrs at 37° C. before measurement of ASL pH. For AmB-cholesterol complex and C35deOAmB administration, cultured airway epithelia were incubated for 48 hrs at 37° C. before measurement of ASL pH. To test the effect of […] ATPase inhibition, AmB was administered 47 hours prior to 10 mM ouabain addition, and cultured airway epithelia were incubated for an additional 1 hr at 37° C. before measurement of ASL pH. For 10 μM ivacaftor/10 μM forskolin administration, cultured airway epithelia were incubated for 2 hrs at 37° C. before measurement of ASL pH (25). For basolateral AmB administration, a 2 mM stock of AmB in DMSO was diluted 1000-fold to a final concentration of 2 μM in USG media. The basolateral media of cultured airway epithelia was replaced with the AmB-containing USG media and incubated for 48 hrs at 37° C. before measurement of ASL pH.

[4] = system: CuFi-1 (ΔF508/ΔF508) epithelia; experiment: Basolateral to apical H14CO3- transport; type: cell-based, human; conditions: for basolateral to apical H^14CO3^− transport, apical addition: over 10 minutes, AmB or C35deOAmB 2 μM, ivacaftor/forskolin 10 μM
Experimental: (§6) Small diameter NuLi and CuFi cultured epithelia were used for this experiment (0.33 cm^2). ^14C-labeled sodium HCO3^− was obtained as a sterile 35.7 mM aqueous solution pH 9.5 (MP Biomedicals 0117441H). All experiments were run less than 2 months post seeding. Fresh USG media was added to the basolateral side prior to experimentation. The apical membrane was treated with 20 μL of vehicle, AmB, or ivacaftor/forskolin as a suspension in perfluorocarbon-72 (Sigma Aldrich), and the cultured epithelia were incubated for 48 hours, 7 days, 14 days, or 28 days at 37° C. in a 5% C02 atmosphere. After the end of the treatment period, 5 μL of a 1.4 mM H^14CO3^− stock solution in USG media was added to the basolateral media. The cultured epithelia were then incubated at 37° C. for 10 minutes. After 10 minutes, the apical membrane of the cultured epithelia was immediately washed with 200 μL of PBS. The ASL wash and a 200 μL aliquot of the basolateral media were diluted in scintillation cocktail and analyzed via liquid scintillation counting (23).

[5] = system: primary cultured airway epithelia derived from humans with CF; experiment: ASL pH in primary cultured airway epithelia from CF donors; type: cell-based, human; conditions: 9 donors, 2 μM, 48 h
Experimental: Airway epithelial cells were obtained from human trachea and bronchi of CF and non-CF specimens obtained from the Iowa Donor Network, either as post-mortem specimens or from tissue deemed not fit for transplant. Studies were approved by the University of Iowa Institutional Review Board. After pronase enzymatic digestion, cells were seeded onto collagen-coated semi-permeable membranes (0.33-1.12 cm^2, Corning 3470 polyester, 3460 polyester, 3413 polycarbonate) and grown at an air-liquid interface (52). Airway epithelial cell cultures were analyzed after they had differentiated and at least 14 days post-seeding.
as §2, §3, §4, §5

[6] = system: ASL of primary CF epithelia; Staphylococcus aureus killed; experiment: ASL antibacterial activity (S. aureus-coated gold grids); type: cell-based, human; conditions: 2 μM, 48 h
Experimental: Staphylococcus aureus-coated gold grids were used to measure antibacterial activity of airway epithelial cultures (3, 4). Small diameter primary cultured epithelia were used for this experiment (0.33 cm^2). Bacteria-coated gold TEM grids were placed onto the apical surface of airway epithelia for 1 min after 48 hours of perfluorocarbon (FC-72, Sigma), 2 μM AmB, or 2 μM C35deOAmB treatment. As controls, bacteria-coated grids were also placed in saline or AmB in FC-72 laid over saline to simulate the administration method for 1 minute. After removal, bacteria on the grids were assessed for viability using Live/Dead BacLight Bacterial Viability assay (Invitrogen). Viability was determined in 4-6 fields to determine the percentages of dead bacteria.

[7] = system: protein ion channel-deficient yeast; conditions: cited from earlier work
yeast = conditions: cited from earlier work
[8] = system: CuFi-4 (G551D/ΔF508) epithelia; experiment: ASL pH in cultured CF airway epithelia (SNARF-dextran); type: cell-based, human
Experimental: as §2, §3, §4, §5

[9] = system: CuFi-4 (G551D/ΔF508) epithelia; experiment: Basolateral to apical H14CO3- transport; type: cell-based, human; conditions: AmB 2 μM, ivacaftor/forskolin 10 μM
Experimental: as §6

[10] = system: primary sinonasal epithelia from a patient with a G551D mutation; conditions: relative to untreated controls; cited from earlier work
[11] = system: CF patients having at least one G551D allele; conditions: clinical trials; cited from earlier work
V520F allele = V520F allele (Homo sapiens, UniProt P13569, V520F); conditions: V520F allele (D259G/V520F); cited from earlier work
[12] = system: CF epithelia that lack a G551D or similar allele; conditions: cited from earlier work

V520F allele, sequence (P13569 whole entry V520F): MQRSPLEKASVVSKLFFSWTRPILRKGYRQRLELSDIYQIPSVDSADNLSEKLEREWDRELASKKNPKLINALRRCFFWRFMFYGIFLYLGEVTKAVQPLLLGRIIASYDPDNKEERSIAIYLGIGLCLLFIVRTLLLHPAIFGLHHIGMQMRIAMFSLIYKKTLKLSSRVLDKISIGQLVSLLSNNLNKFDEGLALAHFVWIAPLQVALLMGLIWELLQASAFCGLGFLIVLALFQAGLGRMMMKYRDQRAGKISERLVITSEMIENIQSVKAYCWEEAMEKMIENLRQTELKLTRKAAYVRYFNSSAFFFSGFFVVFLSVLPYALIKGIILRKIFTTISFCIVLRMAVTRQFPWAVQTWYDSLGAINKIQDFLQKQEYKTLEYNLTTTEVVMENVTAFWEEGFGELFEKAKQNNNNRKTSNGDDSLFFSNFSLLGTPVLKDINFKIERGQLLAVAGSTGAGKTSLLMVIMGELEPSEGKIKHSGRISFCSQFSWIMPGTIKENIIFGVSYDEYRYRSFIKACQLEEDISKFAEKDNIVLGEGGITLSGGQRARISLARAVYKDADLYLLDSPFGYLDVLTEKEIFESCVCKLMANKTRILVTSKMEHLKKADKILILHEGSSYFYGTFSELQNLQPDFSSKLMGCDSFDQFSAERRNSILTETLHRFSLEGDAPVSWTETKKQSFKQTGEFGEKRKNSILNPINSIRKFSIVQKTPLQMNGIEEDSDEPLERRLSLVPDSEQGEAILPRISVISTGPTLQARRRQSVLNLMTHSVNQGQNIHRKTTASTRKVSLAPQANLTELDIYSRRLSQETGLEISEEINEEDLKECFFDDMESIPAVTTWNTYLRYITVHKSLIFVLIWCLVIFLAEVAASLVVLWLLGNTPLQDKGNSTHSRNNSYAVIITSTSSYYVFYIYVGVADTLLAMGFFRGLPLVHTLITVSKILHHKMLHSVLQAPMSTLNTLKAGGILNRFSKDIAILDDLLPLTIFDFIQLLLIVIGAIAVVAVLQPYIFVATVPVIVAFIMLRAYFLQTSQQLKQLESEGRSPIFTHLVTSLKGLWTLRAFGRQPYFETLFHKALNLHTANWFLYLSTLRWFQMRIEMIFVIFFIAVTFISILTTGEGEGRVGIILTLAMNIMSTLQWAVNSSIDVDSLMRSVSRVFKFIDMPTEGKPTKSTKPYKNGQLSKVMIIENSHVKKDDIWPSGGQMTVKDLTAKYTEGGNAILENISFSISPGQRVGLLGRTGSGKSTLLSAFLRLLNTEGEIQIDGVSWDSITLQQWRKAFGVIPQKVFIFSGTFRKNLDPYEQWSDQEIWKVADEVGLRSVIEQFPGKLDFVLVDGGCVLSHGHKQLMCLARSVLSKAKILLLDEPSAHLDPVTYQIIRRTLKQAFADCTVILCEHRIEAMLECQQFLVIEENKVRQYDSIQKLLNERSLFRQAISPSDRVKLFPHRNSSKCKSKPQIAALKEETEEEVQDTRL

In the case of `CCCCNc1cc(C(=O)O)cc(S(N)(=O)=O)c1Oc1ccccc1` [bumetanide], the “effect of basolateral bumetanide on AmB-mediated increase in ASL height” value (CuFi-1 epithelia; bumetanide 500 μM) is reported as “abolished the AmB-mediated increase in ASL height” and the “ASL height after basolateral bumetanide” value (NuLi epithelia) is reported as “decreased ASL height in NuLi epithelia”.
For `O=C([O-])O.[Na+]` [NaHCO3], the “duration of transient increase in pH” value [1] is listed as ~15 minutes.
In the case of C35-deoxyamphotericin B [C35deOAmB], the “change in short circuit current / permeabilization of epithelia” value [2] is reported as “Little or no permeabilization”, the “ASL pH, apical addition” value [3] is reported as “an increase in ASL pH was not observed; also recorded: No increase in pH was observed; also recorded: did not raise ASL pH or increase H^14CO3^− secretion” and the “basolateral to apical H^14CO3^− transport, apical addition” value (from here on “basolateral … apical addition”) [4] is reported as “did not; also recorded: caused no increase ASL ^14C bicarbonate; also recorded: did not raise ASL pH or increase H^14CO3^− secretion”. The “ASL pH, apical addition” value [5] was “did not increase ASL pH”, the “ASL antibacterial activity (% of S. aureus killed after exposure to ASL)” value [6] was “had no effect” and the “ASL height, apical addition” value (CuFi-1 epithelia; 0.5 μM) was “did not increase ASL height”. For the same molecule, the yeast growth rescue [7] was “failed to rescue yeast growth at any tested concentration; also recorded: did not” and the “toxicity / fungicidal activity to yeast” value (yeast) was “still maintains potent fungicidal activity”.
In the case of `CC(C)(C)c1cc(C(C)(C)C)c(NC(=O)c2c[nH]c3ccccc3c2=O)cc1O` [ivacaftor], the “ASL pH, apical addition” value [3] is reported as “showed no increase in ASL pH”, the “ASL pH, apical addition” value ([3]; listed as Ivacaftor) is reported as “failed to increase ASL pH or H^14CO3^− secretion” and the “ASL pH, apical addition” value ([3]; listed as ivacaftor/forskolin) is reported as “an increase in ASL pH was not observed”. For the same molecule, the “increase in ASL pH” value ([8]; AmB 2 μM, ivacaftor/forskolin 10 μM) was 0.2 unit, the “ASL pH” value ([8]; apical AmB 2 μM 48 h, ivacaftor/forskolin 10 μM 2 h) was “increase ASL pH” and the “basolateral … apical addition” value ([4]; listed as Ivacaftor) was “failed to increase ASL pH or H^14CO3^− secretion”. The “basolateral … apical addition” value ([4]; listed as ivacaftor/forskolin) was “did not”, the “H^14CO3^− transepithelial transport” value [9] was “increased the rate of bicarbonate efflux” and the “H^14CO3^− transepithelial transport” value ([9]; listed as ivacaftor/forskolin) was “increase H^14CO3-transepithelial transport”. For the same molecule, the decrease in viscosity [10] was “about 1.5 units”, the “increase in ASL pH” value [10] was 0.20 units and the “increase in forced expiratory volume” value [11] was 10%. For the same molecule, the other clinical outcomes [11] was “substantially improved body weight, quality of life, and incidence of pulmonary exacerbation; also recorded: improved FEV1”, the response to ivacaftor (V520F allele) was “refractory to treatment with ivacaftor” and the “benefit in CF epithelia without G551D” value [12] was “does not show benefit in CF epithelia that lack a G551D or similar allele”.
For `C[C@@H]1O[C@@H](O[C@H]2C[C@@H](O)[C@]3(CO)[C@H]4[C@H](O)C[C@]5(C)[C@@H](C6=CC(=O)OC6)CC[C@]5(O)[C@@H]4CC[C@]3(O)C2)[C@H](O)[C@H](O)[C@H]1O` [ouabain], the “effect of basolateral ouabain on AmB-mediated increase in ASL pH” value ([3]; AmB 2 μM 48 h, ouabain 10 mM) was “abrogated; also recorded: abolished” and the “effect of basolateral ouabain on AmB-mediated increase in H^14CO3^− transport” value ([4]; AmB 2 μM, ouabain 10 mM) was “abrogated; also recorded: abolished”.
